Source: patent US20250222066A1, “COMPOSITIONS AND METHODS OF TREATING, PREVENTING OR INHIBITING A FACULTATIVE ANAEROBE INFECTION” (UNIVERSITY OF UTAH RESEARCH FOUNDATION, priority 2022, published 2025)
“Also recorded” adds a separate entry of the source. Where two headings read alike, the source gives them in different places.

Columns and labels:
[1] = tested on: S. aureus biofilm; assay: Live/dead imaging of metronidazole-treated biofilm; format: cell-based; conditions: 0.5 mg/ml metronidazole, 24 h
Source text: FIGS. 9A-B show biofilm histochemical staining. […] Staining of pimonidazole adducts in pimonidazole-treated S. aureus biofilms is localized in the core; the deepest location (darker brown region indicated by arrow) adjacent to the collagen substrate. Regions where oxygen tension is insufficiently low for pimonidazole adduct formation is shown (arrow head; lighter brown region). […] Viable bacteria (green) resided on the biofilm surface, where oxygen and nutrients were readily available.
Next, a time-lapse confocal imaging paired with live-dead staining was used to observe the location of metronidazole-induced cell death.

[2] = tested on: E. coli; assay: Minimum inhibitory concentration (MIC) assay, planktonic bacteria; format: cell-based, Escherichia coli; conditions: Escherichia coli, for 1:1 combinations MIC is the sum of both compounds
Description: (§1) For comparison to these biofilm tests with adjunctive metronidazole, the MIC was determined for each organism and each compound tested.

[3] = tested on: S. aureus; assay: as above; format: cell-based; conditions: for MIC: Staphylococcus aureus
Source text: Shortcomings of clinical antibiotic susceptibility assays. The antibiotic-susceptibility assays used to guide clinical treatment and prophylaxis rely on actively-dividing planktonic bacteria (Williams, D. L. & Costerton, J. W. J Biomed Mat Res B 100, 1163-1169 (2011)). Among the assays performed by clinical reference laboratories are the minimum inhibitory concentration (MIC), and disk diffusion (Kirby-Bauer) assays. The ubiquity of these assays is owed to the fact that they are high throughput, relatively quick to perform, repeatable, and have short turnaround times. They inform clinicians regarding which antibiotic are applicable for a given infection from a simple site swab, blood, or aspirate sample. […] Thus, when a compound, such as metronidazole performs poorly in an MIC assay, a physician would be thoroughly dissuaded from using it. Likewise, in drug-development, a high MIC value would exclude potentially useful anti-biofilm agents from candidate drug libraries. […] Using orthodox clinical methodology, there would be no basis to administer metronidazole in the treatment of a S. aureus-related infections, despite its exceptional efficacy against bacterial biofilms of the same isolates. The MIC assay fails to provide any information about susceptibility profiles of bacteria that reside in the biofilm phenotype.
as §1

[4] = tested on: S. aureus ATCC 6538 biofilms; assay: CDC biofilm reactor coupons, 24 h antibiotic treatment, bioburden by serial dilution plating; format: cell-based; conditions: 24 h treatment, FIG. 1 and FIG. 7
Description: (§2) For determining the broad-spectrum utility of metronidazole, respective bacterial species were grown into stationary biofilms using a 2- or 3-day species-specific growth protocol in a CDC biofilm reactor on standard 0.5 in polycarbonate coupons. Each reactor holds up to 24 coupons/samples with adherent biofilms. Bacterial bioburden, represented as colony forming units (CFUs), from five reactor samples/coupons (n=5) were quantified by first dispersing the bacterial biofilms in 2 ml of PBS by standardized vortex-sonication technique and serial-dilution plating. Importantly, this quantification technique provides bioburden data with logarithmic sensitivity. […] The gray shaded regions represent standard deviations.
(§3) Three groups of 5 coupons/samples (n=5) were placed into 2 ml treatments either containing 0.5-1 mg/ml of gentamicin, metronidazole, or combinations thereof (in CAMHB) and incubated for 24 h at 37° C. Importantly, the total antibiotic concentration (mg/ml) was fixed for each sample to enable assessment of compound synergy.
After the 24 h treatment, the bacteria adhered to coupons were quantified by rinsing the samples very gently in excess PBS followed by vortexing and sonicating to disperse the biofilm in 2 ml PBS and subsequent serial-dilution plating. The bioburden of the adhered bacteria is represented by the blue bars in FIG. 1. […] Broth bioburden is represented by the red bars in FIG. 1.
Twelve hypoxia activated prodrugs from three categories were tested: nitroimidazoles (same class as metronidazole), nitrofurans, and anti-tumor agents.
To test each compound, the contents of an entire CDC-biofilm reactor (24 coupons/biofilm samples) were used (see FIG. 2 and FIG. 3). […] Using the methods described above, 4 reactor samples/coupons served as reactor controls. The remaining 20 samples/coupons were split into 4 treatment groups of 5 samples each (n=5).
For testing against S. aureus biofilms, the compounds were prepared at a concentration of 1 mM in CAMHB; coupons were treated in 2 ml for 24 h. Compounds were intentionally prepared in units of molarity rather than the more common weight/volume ratios of clinicians.
This choice was made for two reasons.
Two of the treatment groups were the same for each test: one in 1 mM nafcillin (a β-lactam antibiotic) and a second in 1 mM gentamicin. […] For comparison for most compounds 1 mM ranges from ˜0.15-0.5 mg/ml, 1 or 2 Log 2 dilutions below tests in FIG. 1. […] The other compounds were tested at the same concentrations.
Quantification of the post-treatment residual bioburden was performed by dispersing biofilm bacteria into the 2 ml treatments with its constituent bacteria by vortexing, and sonicating. […] The pelleted bacteria were resuspended and measured by the serial dilution plating technique. Thus, the values presented in FIGS. 2, 3 and 4 represent the cumulative change in bioburden from the surface-attached biofilms and bacteria in the treatments.

[5] = tested on: P. aeruginosa; assay: Minimum inhibitory concentration (MIC) assay, planktonic bacteria; format: cell-based; conditions: Pseudomonas aeruginosa, for 1:1 combinations MIC is the sum of both compounds
Description: as §1

[6] = tested on: MRSA USA300; assay: as above; format: cell-based; conditions: Staphylococcus aureus, for 1:1 combinations MIC is the sum of both compounds
Description: as §1

[7] = tested on: A. baumannii; assay: as above; format: cell-based; conditions: Acinetobacter baumannii; aerobic; for 1:1 combinations MIC is the sum of both compounds
Description: as §1

[8] = tested on: S. epidermidis; assay: as above; format: cell-based, Staphylococcus epidermidis; conditions: Staphylococcus epidermidis, for 1:1 combinations MIC is the sum of both compounds
Description: as §3, §1

[9] = tested on: biofilms of a range of Gram-negative and Gram-positive organisms; assay: CDC biofilm reactor test of metronidazole combinations across species (FIG. 1); format: cell-based; conditions: paired with gentamicin or levofloxacin (S. epidermidis); 0.5-1 mg/ml total, 24 h
Description: as §2, §3
After the 24 h treatment, the bacteria adhered to coupons were quantified by rinsing the samples very gently in excess PBS followed by vortexing and sonicating to disperse the biofilm in 2 ml PBS and subsequent serial-dilution plating. The bioburden of the adhered bacteria is represented by the blue bars in FIG. 1. […]

[10] = tested on: K. pneumoniae; assay: Minimum inhibitory concentration (MIC) assay, planktonic bacteria; format: cell-based, Klebsiella pneumoniae; conditions: for MIC: Klebsiella pneumoniae, for 1:1 combinations MIC is the sum of both compounds
Description: as §1

[11] = tested on: S. aureus ATCC 6538 biofilms; assay: Hypoxyprobe immunohistochemical staining of pimonidazole adducts in biofilms; format: cell-based; conditions: 0.06 mg/ml pimonidazole, 5 h
Source text: Further, the Hypoxyprobe™ immunohistochemistry kit was used to identify regions of the biofilm that might be hypoxic, and to identify regions with nitro-reductase activity. At the core of the Hypoxyprobe™ kit is the use of the nitroimidazole pimonidazole; it is used to treat, usually animal tissues, but in this case bacterial tissues (biofilms) while in homeostasis prior to fixation, embedment, sectioning, and staining (see structures FIGS. 5E-F). The nitro group on pimonidazole, like that on metronidazole, is reductively activated in hypoxic mammalian tissues by reaction with catalytic nitro-reductase enzymes; it then forms indiscriminate adducts with inter-cellular thiol groups. In the presence of oxygen, the reduced nitro group in pimonidazole (and metronidazole) rapidly reacts with oxygen thereby cycling back to the parent compound. The Hypoxyprobe™ kit contains a primary antibody against these intercellular pimonidazole adducts. Successful immunohistochemical staining of pimonidazole adducts in the biofilm core indicates two important things. First, it would show nitro-reductase activity in the biofilm, and second it would be direct evidence for […] oxygen tension for a nitroimidazole prodrug radical to persist and react with critical cellular components. […]

[12] = anaerobic, read-out: Anaerobic MIC

Compound | location of dead and viable bacteria by live/dead staining [1] | MIC ([2]; aerobic, read-out: Aerobic MIC) [µg/mL] | MIC [2, 12] [µg/mL] | effect against planktonic bacteria as indicated by the MIC ([3]; FIG. 7 legend) | MIC ([3]; aerobic, for 1:1 combinations MIC is the sum of both compounds, read-out: Aerobic MIC) [µg/mL] | MIC ([3]; anaerobic, for 1:1 combinations MIC is the sum of both compounds, read-out: Anaerobic MIC) [µg/mL] | MIC ([3]; isolate used in biofilm tests, read-out: MIC against S. aureus) [µg/mL] | antibiofilm activity [4] | MIC ([5]; aerobic, read-out: Aerobic MIC) [µg/mL] | MIC [5, 12] [µg/mL] | MIC ([6]; aerobic, read-out: Aerobic MIC) [µg/mL] | MIC [6, 12] [µg/mL] | MIC [7] [µg/mL] | MIC ([8]; aerobic, read-out: Aerobic MIC) [µg/mL] | MIC [8, 12] [µg/mL] | synergistic kill against biofilms [9] | MIC ([10]; aerobic, read-out: Aerobic MIC) [µg/mL] | MIC [10, 12] [µg/mL] | reduction in MIC, anaerobic versus aerobic ([10]; log-phase planktonic bacteria) | location of pimonidazole adducts (nitro-reductase activity, hypoxia) [11]
Cc1ncc([N+](=O)[O-])n1CCO [Metronidazole, metronidazole] | an abundance of dead and dying bacteria in the biofilm core contrasted with viable bacteria on the biofilm surface; also recorded: Dead cells (red) resided deep within the biofilm core | 1250 | 156 | little effect against planktonic bacteria | 2500 | > 2500 | > 2500 | much greater antibiofilm activity compared to traditional antibiotics; also recorded: graded concentration-dependent effect against biofilms; also recorded: killed the otherwise difficult-to-kill persister cells embedded within the biofilm | > 2500 | > 2500 | 1250 | 1250 | > 2500 | 312 | 625 | strong synergistic kill | > 2500 | 1250 | two | –
O=[N+]([O-])c1nccn1CC(O)CN1CCCCC1 (centres unmarked) [pimonidazole] | – | – | – | – | – | – | – | – | – | – | – | – | – | – | – | – | – | – | – | adducts banded throughout the deepest parts of the biofilm core
